Experimental data reported in ChEMBL document CHEMBL1131676, “The discovery of orally available thrombin inhibitors: optimisation of the P1 pharmacophore” (Bioorg Med Chem Lett, 1999).

Columns and labels:
Prothrombin = Prothrombin (Homo sapiens, UniProt P00734); assay: Binding affinity to human thrombin
[1] = Effect on doubling of human clotting time assay expressed as Activated partial thromboplastin time value (APTT); assay type: functional

Compound	Ki (Prothrombin)	APTT [1]
CNc1ccc([C@H](NS(=O)(=O)c2cnccc2N[C@H](CO)Cc2ccccc2)C(=O)N2CCC(CCF)CC2)cc1	0.012 µM	4.08 µM
O=C([C@H](Cc1ccccc1)NS(=O)(=O)c1cnccc1N[C@H](CO)Cc1ccccc1)N1CCC(CCF)CC1	0.1 µM	11 µM
O=C([C@H](Cc1cscn1)NS(=O)(=O)c1cnccc1N[C@H](CO)Cc1ccccc1)N1CCC(CCF)CC1	0.28 µM	9.17 µM
O=C([C@H](Cc1ccc(O)cc1)NS(=O)(=O)c1cnccc1N[C@H](CO)Cc1ccccc1)N1CCC(CCF)CC1	0.041 µM	1.91 µM
CC(C)C[C@H](NS(=O)(=O)c1cnccc1N[C@H](CO)Cc1ccccc1)C(=O)N1CCC(CCF)CC1	11.9 µM	–
O=C([C@@H](NS(=O)(=O)c1cnccc1N[C@H](CO)Cc1ccccc1)c1ccncc1)N1CCC(CCF)CC1	1.54 µM	–
COc1ccc(C[C@H](NS(=O)(=O)c2cnccc2N[C@H](CO)Cc2ccccc2)C(=O)N2CCC(CCF)CC2)cc1	0.036 µM	8.013 µM
C[C@H](NS(=O)(=O)c1cnccc1N[C@H](CO)Cc1ccccc1)C(=O)N1CCC(CCF)CC1	49.9 µM	–
NCCCC[C@H](NS(=O)(=O)c1cnccc1N[C@H](CO)Cc1ccccc1)C(=O)N1CCC(CCF)CC1	1.8 µM	–
N=C(N)NCC[C@H](NS(=O)(=O)c1cnccc1N[C@H](CO)Cc1ccccc1)C(=O)N1CCC(CCF)CC1	0.016 µM	0.75 µM
CC(C)[C@H](NS(=O)(=O)c1cnccc1N[C@H](CO)Cc1ccccc1)C(=O)N1CCC(CCF)CC1	6.51 µM	–
CCNc1ccc(C[C@H](NS(=O)(=O)c2cnccc2N[C@H](CO)Cc2ccccc2)C(=O)N2CCC(CCF)CC2)cc1	0.575 µM	17.4 µM
O=C([C@H](Cc1ccccn1)NS(=O)(=O)c1cnccc1N[C@H](CO)Cc1ccccc1)N1CCC(CCF)CC1	0.081 µM	3.87 µM
O=C([C@H](Cc1ccc2ccccc2c1)NS(=O)(=O)c1cnccc1N[C@H](CO)Cc1ccccc1)N1CCC(CCF)CC1	0.069 µM	26 µM
O=C([C@@H](NS(=O)(=O)c1cnccc1N[C@H](CO)Cc1ccccc1)C1CCCCC1)N1CCC(CCF)CC1	11.8 µM	–
Nc1cc(C[C@H](NS(=O)(=O)c2cnccc2N[C@H](CO)Cc2ccccc2)C(=O)N2CCC(CCF)CC2)ccc1O	0.026 µM	1.53 µM
O=C([C@H](Cc1ccc2c(c1)OCO2)NS(=O)(=O)c1cnccc1N[C@H](CO)Cc1ccccc1)N1CCC(CCF)CC1	0.043 µM	6.39 µM
O=C([C@H](Cc1ccc(O)c(O)c1)NS(=O)(=O)c1cnccc1N[C@H](CO)Cc1ccccc1)N1CCC(CCF)CC1	0.082 µM	6.17 µM
O=C([C@H](Cc1cccnc1)NS(=O)(=O)c1cnccc1N[C@H](CO)Cc1ccccc1)N1CCC(CCF)CC1	1.61 µM	20.33 µM
